The record followed here is patent US7951815B2, “Substituted 1,4,8-triazaspiro [4,5]decan-2-one compounds” (Gruenenthal GmbH, priority 2004, dated 2011).

One may read the inhibition as the share of the control response that was lost under treatment.

T1 sequence (P31652 whole entry): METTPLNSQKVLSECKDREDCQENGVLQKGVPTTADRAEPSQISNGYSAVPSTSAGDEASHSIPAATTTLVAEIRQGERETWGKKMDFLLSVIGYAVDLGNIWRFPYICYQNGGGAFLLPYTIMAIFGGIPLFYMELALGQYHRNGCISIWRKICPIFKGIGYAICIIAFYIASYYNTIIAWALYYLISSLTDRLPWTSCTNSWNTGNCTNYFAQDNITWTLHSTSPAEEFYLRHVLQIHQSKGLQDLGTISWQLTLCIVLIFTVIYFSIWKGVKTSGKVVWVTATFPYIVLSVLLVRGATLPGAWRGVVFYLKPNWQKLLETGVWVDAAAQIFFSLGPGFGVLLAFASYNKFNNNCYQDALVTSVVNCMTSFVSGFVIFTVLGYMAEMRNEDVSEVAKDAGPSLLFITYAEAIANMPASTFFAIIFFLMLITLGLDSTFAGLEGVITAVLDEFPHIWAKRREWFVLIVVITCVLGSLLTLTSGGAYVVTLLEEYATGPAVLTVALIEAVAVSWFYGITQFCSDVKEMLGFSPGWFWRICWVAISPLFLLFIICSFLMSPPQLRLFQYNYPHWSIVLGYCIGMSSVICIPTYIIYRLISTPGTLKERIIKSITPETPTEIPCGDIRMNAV

The first test addresses T1, 5-HT transporter (Rattus norvegicus, UniProt P31652).
T1 construct: synaptosomes of rat brain areas are freshly isolated; from tissue; host or cells: rat brain synaptosomes (P2 fraction) from marrow and pons
Description: Inhibition of 5-HT uptake in rat brain synaptosomes. It counts as biochemical. The note with it: read-out: Uptake 5-HT, % inhibition; Table III; rat, 1 μM.
Regarding `CCOC(=O)CN1C(=O)C(Cc2ccccc2)NC12CCN(C(=O)C1CCC1)CC2` (stereo not shown) [Example 319, Ethyl (3-benzyl-8-cyclobutanecarbonyl-2-oxo-1,4,8-triazaspiro[4,5]dec-1-yl)acetate], the inhibition at 1 µM worked out at 70%.
In the case of `COc1ccc(CC(=O)N2CCC3(CC2)NCC(=O)N3Cc2ccccc2F)cc1` [Example 320, 1-(2-Fluorobenzyl)-8-[2-(4-methoxyphenyl)acetyl]-1,4,8-triazaspiro[4,5]decan-2-one], the inhibition at 1 µM worked out at 38%.
The same measure, in the same setting: then `C=CCN1C(=O)C(C(C)C)NC12CCN(C(=O)c1ccccc1C)CC2` (stereo not shown) [Example 325, 1-Allyl-3-isopropyl-8-(2-methylbenzoyl)-1,4,8-triazaspiro[4,5]decan-2-one], with 32%.

The next test concerns batrachotoxin (BTX) binding site of the sodium channel. Description: Affinity to the batrachotoxin (BTX) binding site of the sodium channel. The following applies: Table II; rat cerebrocortex synaptosomes; test concentration not given.
Molecule `Cl.O=C(c1ccc(Cl)cc1)N1CCC2(CC1)N[C@@H](Cc1ccccc1)C(=O)N2Cc1ccc(F)cc1` (racemic) [Example 28, 3-(S,R)-benzyl-8-(4-chlorobenzoyl)-1-(4-fluorobenzyl)-1,4,8-triazaspiro[4,5]decan-2-one hydrochloride] returned a BTX inhibition of 47.
In the case of `Cl.O=C(C(c1ccccc1)c1ccccc1)N1CCC2(CC1)N[C@@H](Cc1ccccc1)C(=O)N2Cc1ccccc1` [Example 56, 1,3-(S)-dibenzyl-8-diphenylacetyl-1,4,8-triazaspiro[4,5]decan-2-one hydrochloride], the BTX inhibition was 67.
`COc1cccc(C(=O)N2CCC3(CC2)N[C@@H](Cc2ccccc2)C(=O)N3Cc2ccccc2)c1.Cl` [Example 61, 1,3-(S)-dibenzyl-8-(3-methoxybenzoyl)-1,4,8-triazaspiro[4,5]decan-2-one hydrochloride] came in with a BTX inhibition of 41.

The same test, now with this note: Table III; rat cerebrocortex synaptosomes; test concentration not given.
In turn, `O=C(c1ccc(-c2ccccc2)cc1)N1CCC2(CC1)NCC(=O)N2Cc1ccccc1` [Example 72, 1-Benzyl-8-(biphenyl-4-carbonyl)-1,4,8-triazaspiro[4,5]decan-2-one] returned a BTX inhibition of 39.
On the same count and under the same terms, then `Cc1onc(-c2c(F)cccc2Cl)c1C(=O)N1CCC2(CC1)NC(C(C)C)C(=O)N2CCOc1ccccc1` (stereo not shown) [Example 131, 8-[3-(2-Chloro-6-fluorophenyl)-5-methylisoxazole-4-carbonyl]-3-isopropyl-1-(2-phenoxyethyl)-1,4,8-triazaspiro[4,5]decan-2-one], with 37; and `Cc1cccc(C(=O)N2CCC3(CC2)NC(CC(C)C)C(=O)N3Cc2ccccc2F)c1` (stereo not shown) [Example 132, 1-(2-Fluorobenzyl)-3-isobutyl-8-(3-methylbenzoyl)-1,4,8-triazaspiro[4,5]decan-2-one], with 54; and `CCCCC(CC)C(=O)N1CCC2(CC1)NCC(=O)N2CCOc1ccccc1` (stereo not shown) [Example 133, 8-(2-Ethylhexanoyl)-1-(2-phenoxyethyl)-1,4,8-triazaspiro[4,5]decan-2-one], with 35.
In the case of `CCOc1ccc(C(=O)N2CCC3(CC2)NC(Cc2ccccc2)C(=O)N3C)cc1` (stereo not shown) [Example 135, 3-Benzyl-8-(4-ethoxybenzoyl)-1-methyl-1,4,8-triazaspiro[4,5]decan-2-one], the BTX inhibition is listed as 31.
Still for that read-out and setting: the figure for `CSCCC1NC2(CCN(C(=O)c3cccc(N(C)C)c3)CC2)N(Cc2cc(C)cc(C)c2)C1=O` (stereo not shown) [Example 137, 8-(3-Dimethylaminobenzoyl)-1-(3,5-dimethylbenzyl)-3-(2-methylsulfanylethyl)-1,4,8-triazaspiro[4,5]decan-2-one] is 59; for `O=C(c1ccc(F)c(F)c1)N1CCC2(CC1)NCC(=O)N2CCOc1ccccc1` [Example 142, 8-(3,4-Difluorobenzoyl)-1-(2-phenoxyethyl)-1,4,8-triazaspiro[4,5]decan-2-one] it is 32.
Still for that read-out and setting: the figure for `CSCCC1NC2(CCN(C(=O)c3cccc(Cl)c3F)CC2)N(Cc2cc(C)cc(C)c2)C1=O` (stereo not shown) [Example 156, 8-(3-Chloro-2-fluorobenzoyl)-1-(3,5-dimethylbenzyl)-3-(2-methylsulfanylethyl)-1,4,8-triazaspiro[4,5]decan-2-one] is 60; for `CC(C)C1NC2(CCN(C(=O)COc3cccc(Cl)c3)CC2)N(CCOc2ccccc2)C1=O` (stereo not shown) [Example 165, 8-[2-(3-Chlorophenoxy)acetyl]-3-isopropyl-1-(2-phenoxyethyl)-1,4,8-triazaspiro[4,5]decan-2-one] it is 63.
Same read-out and setting: the figure for `CSCCC1NC2(CCN(C(=O)c3cccc(C)c3C)CC2)N(C)C1=O` (stereo not shown) [Example 166, 8-(2,3-Dimethylbenzoyl)-1-methyl-3-(2-methylsulfanylethyl)-1,4,8-triazaspiro[4,5]decan-2-one] is 47; for `CSCCC1NC2(CCN(C(=O)c3c(-c4ccccc4Cl)noc3C)CC2)N(Cc2cc(C)cc(C)c2)C1=O` (stereo not shown) [Example 169, 8-[3-(2-Chlorophenyl)-5-methylisoxazole-4-carbonyl]-1-(3,5-dimethylbenzyl)-3-(2-methylsulfanylethyl)-1,4,8-triazaspiro[4,5]decan-2-one] it is 51; for `CCOc1ccc(C(=O)N2CCC3(CC2)NC(CC(C)C)C(=O)N3Cc2ccccc2)cc1` (stereo not shown) [Example 179, 1-Benzyl-8-(4-ethoxybenzoyl)-3-isobutyl-1,4,8-triazaspiro[4,5]decan-2-one] it is 46.
On to `CSCCC1NC2(CCN(C(=O)c3c(-c4c(F)cccc4Cl)noc3C)CC2)N(Cc2cccc(C#N)c2)C1=O` (stereo not shown) [Example 181, 3-[8-[3-(2-Chloro-6-fluorophenyl)-5-methylisoxazole-4-carbonyl]-3-(2-methylsulfanylethyl)-2-oxo-1,4,8-triazaspiro[4,5]dec-1-ylmethyl]benzonitrile], for which the BTX inhibition is listed as 43.
Molecule `CN1C(=O)C(Cc2ccccc2)NC12CCN(C(=O)COc1ccccc1)CC2` (stereo not shown) [Example 184, 3-Benzyl-1-methyl-8-(2-phenoxyacetyl)-1,4,8-triazaspiro[4,5]decan-2-one] yielded a BTX inhibition of 62.
Same read-out and setting: the figure for `CCCCC(=O)N1CCC2(CC1)NC(CCSC)C(=O)N2Cc1cc(C)cc(C)c1` (stereo not shown) [Example 189, 1-(3,5-Dimethylbenzyl)-3-(2-methylsulfanylethyl)-8-pentanoyl-1,4,8-triazaspiro[4,5]decan-2-one] is 40.
The same measure, in the same setting: then `Cc1oc(C(C)(C)C)cc1C(=O)N1CCC2(CC1)NC(C(C)C)C(=O)N2CCOc1ccccc1` (stereo not shown) [Example 196, 8-(5-tert-Butyl-2-methylfuran-3-carbonyl)-3-isopropyl-1-(2-phenoxyethyl)-1,4,8-triazaspiro[4,5]decan-2-one], with 52; and `CC(C)CC1NC2(CCN(C(=O)CC3CCCC3)CC2)N(Cc2ccc(F)cc2)C1=O` (stereo not shown) [Example 197, 8-(2-Cyclopentylacetyl)-1-(4-fluorobenzyl)-3-isobutyl-1,4,8-triazaspiro[4,5]decan-2-one], with 41.
Still for that read-out and setting: the figure for `COC(=O)c1ccc(CN2C(=O)C(C(C)C)NC23CCN(C(=O)CC(C)(C)C)CC3)cc1` (stereo not shown) [Example 198, Methyl 4-[8-(3,3-dimethylbutyryl)-3-isopropyl-2-oxo-1,4,8-triazaspiro[4,5]dec-1-ylmethyl]benzoate] is 30.
For the molecule `CCCCN1C(=O)C(C(C)C)NC12CCN(C(=O)CC1CCCC1)CC2` (stereo not shown) [Example 201, 1-Butyl-8-(2-cyclopentylacetyl)-3-isopropyl-1,4,8-triazaspiro[4,5]decan-2-one], the BTX inhibition amounted to 42.
On the same count and under the same terms, then `CSCCC1NC2(CCN(C(=O)C=Cc3cccc(C(F)(F)F)c3)CC2)N(C)C1=O` (stereo not shown) [Example 208, 1-Methyl-3-(2-methylsulfanylethyl)-8-[3-(3-trifluoromethylphenyl)acryloyl]-1,4,8-triazaspiro[4,5]decan-2-one], with 33; and `C#CCN1C(=O)C(CCSC)NC12CCN(C(=O)c1ccc(-c3ccccc3)cc1)CC2` (stereo not shown) [Example 213, 8-(Biphenyl-4-carbonyl)-3-(2-methylsulfanylethyl)-1-prop-2-ynyl-1,4,8-triazaspiro[4,5]decan-2-one], with 43; and `COc1ccc(CC(=O)N2CCC3(CC2)NC(CCSC)C(=O)N3Cc2ccc(F)cc2)cc1` (stereo not shown) [Example 215, 1-(4-Fluorobenzyl)-8-[2-(4-methoxyphenyl)acetyl]-3-(2-methylsulfanylethyl)-1,4,8-triazaspiro[4,5]decan-2-one], with 32.
The same measure, in the same setting: the figure for `CC(C)CC1NC2(CCN(C(=O)CCC3CCCC3)CC2)N(Cc2ccccc2F)C1=O` (stereo not shown) [Example 220, 8-(3-Cyclopentylpropionyl)-1-(2-fluorobenzyl)-3-isobutyl-1,4,8-triazaspiro[4,5]decan-2-one] is 62.
On the same count and under the same terms, the figure for `CC(C)CC1NC2(CCN(C(=O)c3ccc(C(F)(F)F)c(F)c3)CC2)N(Cc2ccccc2)C1=O` (stereo not shown) [Example 241, 1-Benzyl-8-(3-fluoro-4-trifluoromethylbenzoyl)-3-isobutyl-1,4,8-triazaspiro[4,5]decan-2-one] is 58.
`CN1C(=O)C(Cc2ccccc2)NC12CCN(C(=O)C1COc3ccc(Cl)cc3C1)CC2` (stereo not shown) [Example 242, 3-Benzyl-8-(6-chloro-2H-chroman-3-carbonyl)-1-methyl-1,4,8-triazaspiro[4,5]decan-2-one] returned a BTX inhibition of 42.
On the same count and under the same terms, then `CC(C)C1NC2(CCN(C(=O)C3COc4ccc(Cl)cc4C3)CC2)N(Cc2ccccc2C#N)C1=O` (stereo not shown) [Example 245, 2-[8-(6-Chloro-2H-chroman-3-carbonyl)-3-isopropyl-2-oxo-1,4,8-triazaspiro[4,5]dec-1-ylmethyl]benzonitrile], with 60; and `CC(C)C1NC2(CCN(C(=O)c3cccc(Cl)c3F)CC2)N(Cc2ccccc2C#N)C1=O` (stereo not shown) [Example 247, 2-[8-(3-Chloro-2-fluorobenzoyl)-3-isopropyl-2-oxo-1,4,8-triazaspiro[4,5]dec-1-ylmethyl]benzonitrile], with 32; and `COC(=O)c1ccc(CN2C(=O)CNC23CCN(C(=O)c2snnc2C)CC3)cc1` [Example 258, Methyl 4-[8-(4-methyl[1,2,3]thiadiazole-5-carbonyl)-2-oxo-1,4,8-triazaspiro[4,5]dec-1-ylmethyl]benzoate], with 32.
